Experimental data from PMC4795541, “A Rapid and Quantitative Flow Cytometry Method for the Analysis of Membrane Disruptive Antimicrobial Activity” (PLoS ONE, 2016).
In brackets after ≈: the same amount, converted by molar mass. Like-named read-outs stand apart in the source and are kept apart here. Marks after values point to notes of the source that are not given here. Where a SMILES comes first, the peptide text is derived from it. Where no end group is shown, it is not given here. [ ]: non-standard residue; d: D form. Phe(ol) = N[C@H](CO)Cc1ccccc1; Dab = NCC[C@H](N)C(=O)O; Dap = NC[C@H](N)C(=O)O; Aib = CC(C)(N)C(=O)O

Experiments:
F. nucleatum ATCC 25586 [1] = test system: F. nucleatum ATCC 25586
Excerpt: (§1) The bacterial strains; Fusobacterium nucleatum ATCC 25586, Streptococcus mutans Ingbritt, Staphylococcus aureus (MSSA) ATCC 29213; Staphylococcus aureus (MRSA) ATCC 43300; Enterococcus faecalis ATCC 29212; Enterobacter aerogenes ATCC 13048; Pseudomonas aeruginosa strain PAO1-LAC, ATCC 47085; Klebsiella pneumoniae ATCC 13883; Acinetobacter baumannii strain 2208, ATCC 19606; Escherichia coli ATCC 25922 lyophilised or glycerol stocks were obtained from the culture collection of the Oral Health Cooperative Research Centre, The Melbourne Dental School, University of Melbourne, Australia. These strains were selected for this study as they are widely used in antimicrobial studies and are considered to be important pathogens and major targets for antibiotic resistant studies. Bacteria were grown aerobically and maintained by passage at ambient temperature (E. coli, K. pneumoniae, A. baumannii and S. aureus strains) or at 37°C (P. aeruginosa, E. faecalis and E. aerogenes) on horse blood agar (10% v/v defibrinated horse blood, 4.4% w/v Oxoid Blood Agar Base No. 2). S. mutans and F. nucleatum were grown anaerobically (MK3 anaerobic workstation, Don Whitley Scientific Limited, England) and maintained by passage at 37°C on Todd Hewitt agar (3.6% w/v Oxoid Todd-Hewitt Broth, 1.5% w/v sucrose, 1.5% w/v BactoTM Agar, 0.8% w/v Oxoid Yeast Extract) or horse blood agar, respectively. For the antimicrobial peptide assays a 20 mL starter culture was produced by taking single colonies from blood or Todd Hewitt agar plates, respectively, to inoculate either: Luria Broth (LB; 1% w/v BactoTM Tryptone, 1% w/v NaCl, 0.5% w/v Oxoid Yeast Extract, pH 7.5, Thermo Scientific Pty, Ltd, Sydney, Australia) for bacteria; E. coli, K. pneumoniae, P. aeruginosa, A. baumannii, E. faecalis, E. aerogenes and S. aureus which were grown aerobically at 37°C, or Todd Hewitt broth (3.6% w/v Oxoid Todd-Hewitt Broth, 1.5% w/v sucrose, 0.8% w/v Oxoid Yeast 9 Extract) for S. mutans, or Brain Heart Infusion broth (BHI; 3.7% w/v Oxoid BHI, 0.05% w/v L-cysteine) for F. nucleatum which were both grown anaerobically at 37°C. After overnight incubation, 0.5–2.0 mL of the starter culture was used to inoculate the appropriate fresh broth (200 mL) and growth monitored at 650 nm using a spectrophotometer (model 275E; Perkin-Elmer, Sydney, Australia) with culture purity checked by microscopic examination and culture. Bacteria were harvested during late exponential growth phase and viability and bacteria/mL determined using a BacLight viability kit (Invitrogen, Sydney, Australia) and a Quanta SC-MPL flow cytometer (Beckman coulter Pty, Ltd, Sydney, Australia).
(§2) Antibacterial assays were undertaken to determinate the minimum inhibitory concentration (MIC), minimum bactericidal concentration (MBC) and minimum membrane disruptive concentration (MDC) of each of the antimicrobial peptides (AMP) and AMP analogues (S1 Table). For each bacterim a stock solution (2.5 × 10^6 cells/mL) in the respective media was made and an aliquot incubated with AMPs within 15 minutes from viable cell count and stock preparation. All AMPs were dissolved in DMSO and a 500 μM stock solution prepared by adding the respective media and serial dilutions (250–0.244 μM) of the AMP in media (100 μL/well) made just prior addition of bacteria. […] One hundred microliter aliquots of the bacterial stock solution (2.5 × 10^5 cells/well) were added to the AMP serial dilutions and incubated at 37°C for 90 min. Assay preparation and incubations were conducted in aerobic or anaerobic conditions dependent on the bacteria. Bacteria were also incubated in the absence of AMP to serve as a growth control for the assay. After the 90 minute incubation period the antimicrobial activity (MIC, MBC and MDC) was determined as follows;
(§3) For MIC the CLSI broth microdilution assay was followed as we have previously described.

S. mutans Ingbritt [2] = test system: S. mutans Ingbritt
Excerpt: as §1, §2, §3

F. nucleatum ATCC 25586 [3] = test system: F. nucleatum ATCC 25586; remark: listed apart in the source
Excerpt: as §1, §2
(§4) For determination of MBC, the CLSI protocol was followed, with the modifications being that due to the rapid action of the AMPs the assay incubation time was shortened from 16–20 hours to 90 minutes.

S. mutans Ingbritt [4] = test system: S. mutans Ingbritt; remark: listed apart in the source
Excerpt: as §1, §2, §4

[5] = test system: HEK-293 (ATCC CRL-1573) cells; assay: Inhibition of cell proliferation assay (MTS); format: cell-based; settings: for IC50: HEK-293 cells 5×10^3, EMEM + 10% FBS, 28 h, MTS, A490, linear regression, maximum peptide concentration = 1000 µM; for Therapeutic Index (proliferation): IC50/MDC50 (F. nucleatum), given as x : 1
Description: After 28 h, 20 μL of 3-(4,5-dimethylthiazol-2-yl)-5-(3-carboxymethoxyphenyl)-2-(4-sulfophenyl)-2H-tetrazolium (MTS) solution (CellTiter 96 AQueous Non-Radioactive Cell Proliferation Assay kit, Promega) were added to each well and the plates were incubated for a further 1–2 h at 37°C, 5% CO2 incubator. Cell proliferation was determined by measuring absorbance at 490 nm using a microplate reader (PerkinElmer 1420 Multilabel Counter VICTOR3). Positive and negative controls for inhibition were taken as HEK-293 cells incubated with mytomycin C (5 μg/mL, Sigma Pty Ltd) and HEK-293 cells incubated in media alone, respectively. The percentage of inhibition was calculated using the following formula: % Inhibition = [(A490 test sample—A490 negative control) / (A490 positive control—A490 negative control)] × 100
The percentage of inhibition was plotted against peptide concentration and linear regression analysis was used to determine the AMP concentration needed to inhibit 50% (IC50) of the HEK-293 cells.

[6] = F. nucleatum ATCC 25586, 2.5 × 10^5 cells/well, 90 min peptide/bacteria incubation at 37°C, then growth at OD650, average of 3 assays ± SD
[7] = S. mutans Ingbritt, 90 min peptide/bacteria incubation at 37°C, then growth at OD650, average of 3 assays ± SD
[8] = F. nucleatum ATCC 25586, 90 min peptide/bacteria incubation, CFU on agar, ≥ 99.9% reduction, average of 3 assays ± SD
[9] = S. mutans Ingbritt, 90 min peptide/bacteria incubation, CFU on agar, ≥ 99.9% reduction, average of 3 assays ± SD

Row | Molecule | MIC (F. nucleatum ATCC 25586 [1]; [6]) [µM] | MIC (S. mutans Ingbritt [2]; [7]) | MBC (F. nucleatum ATCC 25586 [3]; [8]) [µM] | MBC (S. mutans Ingbritt [4]; [9]) | MIC (S. mutans Ingbritt [2]; Ingbritt, 24 h) | MBC (S. mutans Ingbritt [4]; Ingbritt) | IC50 [5] [µM] | Therapeutic Index (proliferation) [5] | MIC (F. nucleatum ATCC 25586 [1]; ATCC 25586, 24 h) | MBC (F. nucleatum ATCC 25586 [3]; ATCC 25586) | MIC (F. nucleatum ATCC 25586 [1]; F. nucleatum ATCC 25586, 2.5 × 10^5 cells/well, 90 min peptide/bacteria incubation at 37°C, then growth at OD650, average of 3 assays ± SD, listed as Native) [µM] | MIC (S. mutans Ingbritt [2]; S. mutans Ingbritt, 90 min peptide/bacteria incubation at 37°C, then growth at OD650, average of 3 assays ± SD, listed as Native) [µM] | MBC (F. nucleatum ATCC 25586 [3]; F. nucleatum ATCC 25586, 90 min peptide/bacteria incubation, CFU on agar, ≥ 99.9% reduction, average of 3 assays ± SD, listed as Native) [µM] | MBC (S. mutans Ingbritt [4]; S. mutans Ingbritt, 90 min peptide/bacteria incubation, CFU on agar, ≥ 99.9% reduction, average of 3 assays ± SD, listed as Native) [µM]
1 | CC(=O)NC(C)(C)C(=O)N1CCC[C@H]1C(=O)NC(C)(C)C(=O)N[C@@H](C)C(=O)NC(C)(C)C(=O)N[C@@H](C)C(=O)N[C@@H](CCC(N)=O)C(=O)NC(C)(C)C(=O)N[C@H](C(=O)NC(C)(C)C(=O)NCC(=O)N[C@@H](CC(C)C)C(=O)NC(C)(C)C(=O)N1CCC[C@H]1C(=O)N[C@H](C(=O)NC(C)(C)C(=O)NC(C)(C)C(=O)N[C@@H](CCC(=O)O)C(=O)N[C@@H](CCC(N)=O)C(=O)N[C@H](CO)Cc1ccccc1)C(C)C)C(C)C [Alamethicin] (Ac-[Aib]P[Aib]A[Aib]AQ[Aib]V[Aib]GL[Aib]PV[Aib][Aib]EQ[Phe(ol)]; N-terminus assumed) | 22.6 ± 12.7 (≈ 44.4 µg/mL) | 29.4 ± 8.2 µM (≈ 57.8 µg/mL) | 18.0 ± 3.9 (≈ 35.4 µg/mL) | 39.8 ± 0.3 µM (≈ 78.2 µg/mL) | – | – | – | – | – | – | – | – | – | –
2 | CC[C@H](C)[C@H](NC(=O)CN)C(=O)NCC(=O)N[C@@H](CCN)C(=O)N[C@@H](Cc1ccccc1)C(=O)N[C@@H](CC(C)C)C(=O)N[C@@H](Cc1c[nH]cn1)C(=O)N[C@@H](CO)C(=O)N[C@@H](C)C(=O)N[C@@H](CCN)C(=O)N[C@@H](CCN)C(=O)N[C@@H](Cc1ccccc1)C(=O)NCC(=O)N[C@@H](CCN)C(=O)N[C@@H](C)C(=O)N[C@@H](Cc1ccccc1)C(=O)N[C@H](C(=O)NCC(=O)N[C@@H](CCC(=O)O)C(=O)N[C@H](C(=O)N[C@@H](CCSC)C(=O)N[C@@H](CC(N)=O)C(=O)N[C@@H](CO)C(N)=O)[C@@H](C)CC)C(C)C [Magainin-Dab] (H-GIG[Dab]FLHSA[Dab][Dab]FG[Dab]AFVGEIMNS-NH2; N-terminus assumed) | 6.3 ± 0.5 (≈ 14.8 µg/mL) | – | – | – | >200^c μM | >200^c μM | 178 ± 39.4 | 32.4 : 1 | – | – | – | – | – | –
3 | CC[C@H](C)[C@H](NC(=O)CN)C(=O)NCC(=O)N[C@@H](CN)C(=O)N[C@@H](Cc1ccccc1)C(=O)N[C@@H](CC(C)C)C(=O)N[C@@H](Cc1c[nH]cn1)C(=O)N[C@@H](CO)C(=O)N[C@@H](C)C(=O)N[C@@H](CN)C(=O)N[C@@H](CN)C(=O)N[C@@H](Cc1ccccc1)C(=O)NCC(=O)N[C@@H](CN)C(=O)N[C@@H](C)C(=O)N[C@@H](Cc1ccccc1)C(=O)N[C@H](C(=O)NCC(=O)N[C@@H](CCC(=O)O)C(=O)N[C@H](C(=O)N[C@@H](CCSC)C(=O)N[C@@H](CC(N)=O)C(=O)N[C@@H](CO)C(N)=O)[C@@H](C)CC)C(C)C [Magainin-Dap] (H-GIG[Dap]FLHSA[Dap][Dap]FG[Dap]AFVGEIMNS-NH2; N-terminus assumed) | – | – | – | – | >200^c μM | >200^c μM | 285 ± 19.4 | 19.1 : 1 | 18.4±9.7^c μM | 29.7±0.4^c μM | – | – | – | –
4 | GIGKFLHSAKKFGKAFVGEIMNS-NH2 [Magainin II] | 10.2 ± 1.5 | 109.3 ± 20.4 µM | 8.1 ± 1.3 | 109 ± 20.2 µM | – | – | 95.2 ± 32.2 | 20.2 : 1 | – | – | 10.1 ± 0.6 | 123.4 ± 9.2 | 7.3 ± 1.0 | 117.1 ± 2.3
5 | GIGRFLHSARRFGRAFVGEIMNS-NH2 [Magainin-Arg] | – | – | – | – | 41.8±6.8^c μM | 37.3±1.9^c μM | 64.5 ± 3 | 25.8 : 1 | 2.5±0.3^c μM | 2.5±0.8^c μM | – | – | – | –
6 | GIGXFLHSAXXFGXAFVGEIMNS-CONH2 [Magainin-Orn, magainin II analogue, all lysine residues substituted with ornithine] | 13.1 ± 0.5 | >200^c μM | 14.9 ± 0.2 | >200^c μM | – | – | 168 ± 42.1 | 29.4 : 1 | – | – | – | – | – | –
